The values below come from the RepoRT retention time repository (doi:10.1007/s11306-011-0298-z).

The structures appear in SMILES notation.

This series is described as follows: RP, Waters ACQUITY UPLC HSS T3, 100 × 2.1 mm, 1.8 µm, 30 °C, 0.3 mL/min, estimated dead time 0.73 min; A: water + 0.1% formic acid, pH 3; B: methanol + 0.1% formic acid, pH 3; gradient (min/%B) 0/0 6/0 56/100 60/100. The conditions noted are these: stereoisomer not certain.
Take `O=c1oc2c(O)c(O)cc3c(=O)oc4c(O)c(O)cc1c4c23` [ellagic acid]: the LC retention time was 30.2 min. Consider `Cc1cc(O)c2c(c1)C(=O)c1cc(O)cc(O)c1C2=O` [emodin], for which the LC retention time is 46.4 min. Then `Oc1ccc(C2Oc3cc(O)cc(O)c3CC2O)cc1` (stereo not given) [epiafzelechin], with 24.4 min; and `Oc1cc(O)c2c(c1)OC(c1ccc(O)c(O)c1)C(O)C2` (stereo not given) [epicatechin], with 20.5 min; and `O=C(OC1Cc2c(O)cc(O)cc2OC1c1cc(O)c(O)c(O)c1)c1cc(O)c(O)c(O)c1` (stereo not given) [epigallo-catechin gallate], with 22.3 min.

`Oc1cc(O)c2c(c1)OC(c1cc(O)c(O)c(O)c1)C(O)C2` (stereo not given) [epigallocatechin]: the LC retention time was 16.5 min. As to `CC(C)C(C)C=CC(C)C1CCC2C3=CC=C4CC(O)CCC4(C)C3CCC21C` (stereo not given) [ergosterol], the LC retention time was 58.9 min. `O=C1CC(c2ccc(O)c(O)c2)Oc2cc(O)cc(O)c21` (stereo not given) [eriodictyol]: the LC retention time was 31 min. Then `CC1(C)CCC2(CO)CCC3(C)C(=CCC4C5(C)CCC(O)C(C)(C)C5CCC43C)C2C1` (stereo not given) [erythrodiol], with 53.8 min; and `O=c1ccc2cc(OC3OC(CO)C(O)C(O)C3O)c(O)cc2o1` (stereo not given) [esculin], with 17.8 min. Regarding `CCOC(=O)c1cc(O)c(O)c(O)c1` [ethyl gallate], the LC retention time is 23 min. As for `CCOC(=O)Cc1c[nH]c2ccccc12` [ethyl indole-3-acetate], the figure is 35.5 min; as for `CCCCCC=CCC=CCCCCCCCC(=O)OCC` [ethyl linoleate], 56.1 min.

For the compound `CCCCCCCCCCCCCC(=O)OCC` [ethyl tetradecanoate], the LC retention time is 55.1 min. As for `C=CCc1ccc(OC(C)=O)c(OC)c1` [eugenyl acetate], the figure is 38.3 min. For `COc1ccc(-c2cc(=O)c3c(OC)c(OC)c(OC)cc3o2)cc1O` [eupatorin-5-methylether], the LC retention time is 37.4 min.

As for `COc1cc(C=CC(=O)OC(C(=O)O)C(O)C(=O)O)ccc1O` (stereo not given) [fertaric acid], the LC retention time was 19.5 min. With `COc1cc(/C=C/C(=O)O)ccc1O` [ferulic acid], the LC retention time was 25.9 min. On to `Nc1nc2ncc(CNc3ccc(C(=O)NC(CCC(=O)O)C(=O)O)cc3)nc2c(=O)[nH]1` (stereo not given) [folic acid], for which the LC retention time was 21.3 min. Regarding `COc1cc2ccc(=O)oc2c(OC2OC(CO)C(O)C(O)C2O)c1O` (stereo not given) [fraxin], the LC retention time was 20.9 min. As for `O=C(O)C=CC(=O)O` [fumaric acid], the figure is 3.54 min. As for `O=C(O)c1ccco1` [furan-2-carboxylic acid], the figure is 12.7 min; as for `O=Cc1ccco1` [furfural], 12.2 min; as for `O=c1c(O)c(-c2ccccc2)oc2cc(O)cc(O)c12` [galangin], 41.4 min. As for `O=C(O)c1cc(O)c(O)c(O)c1` [gallic acid], the LC retention time is 8.95 min. Then `NCCCC(=O)O` [gamma-aminobutyric acid], with 2.15 min; and `NC(CCC(=O)NC(CS)C(=O)O)C(=O)O` (stereo not given) [gamma-glutamylcysteine], with 3.27 min; and `COC(=O)C1=COC(O)C2C(CO)=CCC12` (stereo not given) [genipin], with 24.2 min. Then `COc1ccc(-c2coc3cc(OC)cc(O)c3c2=O)cc1` [genistein-4,7-dimethylether], with 44.8 min. As for `O=c1c(-c2ccc(O)cc2)coc2cc(O)cc(O)c12` [genistein], the figure is 35.1 min; as for `O=C(O)c1cc(O)ccc1O` [gentisic acid], 17 min.

On to `CC(=O)CCC=C(C)CCC=C(C)C` [geranyl acetone], for which the LC retention time is 46.5 min. Regarding `CC(C)=CCCC(C)=CCOC(=O)c1ccccc1` [geranyl benzoate], the LC retention time was 51.3 min. With `CC(C)=CCCC(C)=CCOC1OC(CO)C(O)C(O)C1O` (stereo not given) [geranyl glucoside], the LC retention time is 36.7 min. Then `CC(C)=CCCC(C)=CCOC(=O)Cc1ccccc1` [geranyl phenylacetate], with 54.6 min; and `CCC(=O)OCC=C(C)CCC=C(C)C` [geranyl propionate], with 48.2 min; and `C=C1CC23CC1(O)CCC2C12C=CC(O)C(C)(C(=O)O1)C2C3C(=O)O` (stereo not given) [gibberellic acid], with 25.5 min. For the compound `O=C(O)C(O)C(O)C(O)C(O)CO` (stereo not given) [gluconic acid], the LC retention time was 1.4 min. As for `O=P(O)(O)OCC1OC(O)C(O)C(O)C1O` (stereo not given) [glucose-6-phosphate], the figure is 1.22 min. As for `O=C(O)CCCC(=O)O` [glutaric acid], the figure is 10.2 min.

Regarding `NC(CCC(=O)NC(CSSCC(NC(=O)CCC(N)C(=O)O)C(=O)NCC(=O)O)C(=O)NCC(=O)O)C(=O)O` (stereo not given) [glutathione disulfide], the LC retention time was 9.68 min. As for `O=C(O)C(O)CO` (stereo not given) [glyceric acid], the figure is 1.45 min; as for `NCC(=O)O` [glycine], 1.22 min. Then `O=C(O)CO` [glycolic acid], with 2.3 min; and `O=CC(=O)O` [glyoxylic acid], with 1.3 min. With `COc1ccccc1O` [guaiacol], the LC retention time was 22.5 min. As for `N=C(N)N` [guanidine], the figure is 1.3 min; as for `Nc1nc2nc[nH]c2c(=O)[nH]1` [guanine], 3.21 min; as for `COc1ccc(C2CC(=O)c3c(O)cc(O)cc3O2)cc1O` (stereo not given) [hesperetin], 34.8 min. On to `CCCCCC(=O)O` [hexanoic acid], for which the LC retention time was 30.9 min. As for `CCCCCCN` [hexylamine], the figure is 15.1 min. As to `O=C(O)CNC(=O)c1ccccc1` [hippuric acid], the LC retention time was 17.3 min.

Regarding `NCCc1cnc[nH]1` [histamine], the LC retention time is 1.1 min.

In the case of `CC(CCC(=O)O)C1CCC2C3CC(O)C4CC(O)CCC4(C)C3CCC12C` (stereo not given) [hyodeoxycholic acid], the LC retention time is 46.4 min. For `O=C(O)c1cc2ccccc2[nH]1` [indole-2-carboxylic acid], the LC retention time was 38.5 min. As to `O=C(O)c1c[nH]c2ccccc12` [indole-3-carboxylic acid], the LC retention time was 25.6 min.

For `O=C(O)CCc1c[nH]c2ccccc12` [indole-3-propionic acid], the LC retention time was 30.3 min. As for `O=C(O)C(=O)Cc1c[nH]c2ccccc12` [indole-3-pyruvic acid], the figure is 30.3 min. With `c1ccc2[nH]ccc2c1` [indole], the LC retention time is 28.1 min.

With `Oc1ccc(C2Oc3cc(O)cc4c3C2c2cc(O)cc(O)c2C(c2ccc(O)cc2)C4C2c3cc(O)cc4c3C(c3cc(O)cc(O)c3C2c2ccc(O)cc2)C(c2ccc(O)cc2)O4)cc1` (stereo not given) [isohopeaphenol], the LC retention time was 25.9 min.

For `CC(C)CCN` [isopentylamine], the LC retention time was 6.9 min. As for `CC(C)C(O)(CC(=O)O)C(=O)O` (stereo not given) [isopropyl malic acid], the figure is 18.1 min. Then `COc1cc(-c2oc3cc(O)cc(O)c3c(=O)c2OC2OC(CO)C(O)C(O)C2O)ccc1O` (stereo not given) [isorhamnetin 3-glucoside], with 31.5 min. With `COc1cc(-c2oc3cc(O)cc(O)c3c(=O)c2OC2OC(COC3OC(C)C(O)C(O)C3O)C(O)C(O)C2O)ccc1O` (stereo not given) [isorhamnetin 3-rutinoside], the LC retention time was 31.7 min. `COc1cc(-c2oc3cc(O)cc(O)c3c(=O)c2O)ccc1O` [isorhamnetin]: the LC retention time is 37.1 min. Take `COc1cc(C=Cc2cc(O)cc(OC3OC(CO)C(O)C(O)C3O)c2)ccc1O` (stereo not given) [isorhapontin]: the LC retention time is 26.1 min. `CCC=CCC1C(=O)CCC1CC(=O)O` (stereo not given) [jasmonic acid]: the LC retention time is 33.7 min. Then `O=C(O)C1OC(Oc2c(-c3ccc(O)cc3)oc3cc(O)cc(O)c3c2=O)C(O)C(O)C1O` (stereo not given) [kaempferol 3-O-glucuronide], with 30.7 min; and `O=c1c(OC2OC(CO)C(O)C(O)C2O)c(-c2ccc(O)cc2)oc2cc(O)cc(O)c12` (stereo not given) [kaempferol 3-glucoside], with 31.2 min; and `CC1OC(OCC2OC(Oc3c(-c4ccc(O)cc4)oc4cc(O)cc(O)c4c3=O)C(O)C(O)C2O)C(O)C(O)C1O` (stereo not given) [kaempferol 3-rutinoside], with 31.4 min. Consider `O=c1c(O)c(-c2ccc(O)cc2)oc2cc(O)cc(O)c12` [kaempferol], for which the LC retention time is 36.6 min. For the compound `CC(O)C(=O)O` (stereo not given) [lactic acid], the LC retention time was 2.51 min. Then `CC(C)=CCCC(C)C1CCC2(C)C3=C(CCC12C)C1(C)CCC(O)C(C)(C)C1CC3` (stereo not given) [lanosterol], with 58.3 min; and `COc1cc(-c2oc3cc(O)cc(O)c3c(=O)c2O)cc(O)c1O` [laricitrin], with 34.7 min. For the compound `CCCCCCCCCCCCCCCCCCCCCCCC(=O)O` [lignoceric acid], the LC retention time is 60.2 min. As for `C=CC(C)(CCC=C(C)C)OC(=O)c1ccccc1` (stereo not given) [linalyl benzoate], the figure is 50.8 min. As for `CCCCC/C=C\C/C=C\CCCCCCCC(=O)O` [linoleic acid], the figure is 53.6 min; as for `CCC=CCC=CCC=CCCCCCCCC(=O)O` [linolenic acid], 52.3 min. Regarding `C=C(C)C1CCC2(C)CCC3(C)C(CCC4C5(C)CCC(O)C(C)(C)C5CCC43C)C12` (stereo not given) [lupeol], the LC retention time was 60 min. Turning to `O=c1cc(-c2ccc(O)c(O)c2)oc2cc(OC3OC(CO)C(O)C(O)C3O)cc(O)c12` (stereo not given) [luteolin 7-glucoside], the LC retention time was 28.1 min.
